Assay results published in patent US20080305169A1, “Pharmaceutical Compositions Comprising Nitrogen-Containing Fused Ring Coumpounds” (Japan Tobacco Inc., priority 2006, published 2008).

Experiments:
[1] = Evaluation of stability on excipient compatibility, compound C (Experimental Example 11); assay type: physicochemical; details: 60° C., 75% RH, 2 weeks
Text: Evaluation of Stability on Excipient Compatibility
Compound C was physically mixed in various additives shown in Table 48 in a mortar (see Table 48 for mixing ratio), and the obtained mixed powder was placed in a glass sample bottle in a layer thickness of about 5 mm.
The glass sample bottle was placed in a desiccator humidity-conditioned to 75% RH (relative humidity) without capping, and the desiccator containing the bottle was preserved for 2 weeks in a constant-temperature equipment set to 60° C.
After the completion of the preservation, a 60 v/v % aqueous acetonitrile solution was added to a concentration of compound C of 0.5 mg/mL, and the mixture was subjected to a dissolution treatment by ultrasonication and a filtration treatment. Each sample was measured by high performance liquid chromatography, and the stability was evaluated based on the changes from the start of preservation.

[2] = Guideline for the management of hyperuricemia and gout (1st Edit.); cited from earlier work

Row | stability when compounded with an additive ([1]; compounded with an additive other than calcium silicate) | SMILES | HPLC peak of decomposition product ([1]; when calcium silicate is added) | dissolution concentration of uric acid in plasma [2] [mg/dL]
1 | good stability | O=C(c1cc(Cl)c(O)c(Cl)c1)N1CCOc2ccccc21 [Reference Example 3, (3,5-dichloro-4-hydroxyphenyl)-(2,3-dihydrobenzo[1,4]oxazin-4-yl)-methanone] | novel peak considered to derive from the decomposition product of compound C | 
2 |  | O=c1[nH]c(=O)c2[nH]c(=O)[nH]c2[nH]1 [uric acid] |  | 7
